Experimental data published in patent US20240238327A1 (priority 2021, published 2024).

Tests used:
Raw 264.7 cells [1] = assay: plasma membrane cholesterol extraction from fixed cells; assay type: cell-based; conditions: for plasma membrane cholesterol extraction: monomers, 20 mg/mL in PBS, 37° C., 1 hour, fixed cells
Protocol: Raw 264.7 cells were maintained in a Dulbecco's modified Eagle's medium (DMEM) containing 10% fetal bovine serum (FBS) and 1% penicillin/streptomycin. In order to suppress endocytosis of cyclodextrin and induce only plasma membrane cholesterol extraction, 1×10^5 cells were fixed at room temperature for 20 minutes using formaldehyde, and then cyclodextrin was dissolved in PBS in a concentration of 20 mg/mL and treated to the cells at 37° C. for 1 hour. The treated PBS was collected, centrifuged at a rate of 14,000 g for 30 minutes to remove cell debris and microvesicles, and then the cholesterol concentration in the supernatant was quantified using a Cholesterol Quantification Kit (Sigma Aldrich). The plasma membrane cholesterol extraction of gamma-cyclodextrins and polymers thereof was compared with alpha and beta-cyclodextrins and polymers thereof. […] The plasma membrane cholesterol extraction induced by gamma-cyclodextrins and polymers thereof was compared with alpha- and beta-cyclodextrins and polymers thereof, and the results are shown in FIG. 5.

[2] = system: outer hair cells in the cochlea; conditions: 5 g/kg brain weight intraventricular; one week after injection
Protocol: (§1) To assess systemic toxicity, cyclodextrin dissolved in PBS was subcutaneously injected in an amount of 10 g/kg body weight to wild-type C57/BL6 mice. […] The body weight and behavioral characteristics of the mice were observed every day for a week. The behavioral characteristics of the mice were measured according to the criteria presented in Endpoints for Mouse Abdominal Tumor Models: Refinement of Current Criteria. In order to confirm toxicity to major organs, the mice were sacrificed 7 days later, and H&E staining was performed. In order to assess ototoxicity, the mice were sacrificed 7 days later, and the outer hair cells in the cochlea were quantified through microscopic observation. […] The brain weight of the mice was calculated to be about 0.4 g according to the age, and as a result, 2 mg of cyclodextrin was dissolved in 10 μL of PBS and injected. After 7 days, the outer hair cells in the cochlea were quantified through microscopic observation.
(§2) Also, the histological analysis of the major organs of the mice after one week is shown in FIG. 24, and ototoxicity of the C57BL/6 mice was evaluated one week after subcutaneously injecting 10 g/kg of cyclodextrin and intraventricularly injecting 5 g/kg brain weight of cyclodextrin. […]

Raw 264.7 cells [3] = assay: cytotoxicity (CCK-8 cell viability); assay type: cell-based; conditions: monomers, 20 mg/mL
Protocol: Raw 264.7 cells were maintained in a DMEM containing 10% FBS and 1% penicillin/streptomycin. 5×10^4 cells were dispensed in each well of a 96-well plate, and after 24 hours, the cells were treated with cyclodextrin at a concentration of 20 mg/mL. After culturing the cells at 37° C. in 5% CO2, a CCK-8 agent was added, 10 μL at a time.

Raw 264.7 cells [4] = assay: intracellular cholesterol excretion in macrophages that had taken up fluorescent cholesterol; assay type: cell-based; conditions: 5 mg/mL, 48 hours; PBS control set to 100%
Protocol: Raw 264.7 cells were dispensed at 5×10^4 cells per well of a 96-well plate, and after 24 hours, the cells were treated with cholesterol crystals at a concentration of 50 μM. […] The cells were cultured at 37° C. in 5% CO2 for 48 hours, and intracellular cholesterol fluorescence was analyzed using a fluorescence microscope. In addition, to investigate the effect of cyclodextrin on intracellular cholesterol metabolism, the amount of ATP-binding cassette transporter (ABCA1) involved in cholesterol excretion was quantified using a cell flow rate analyzer, and cholesteryl ester, which is a storage form of cholesterol, was quantified.

[5] = cholesterol crystal dissolution; assay type: physicochemical; conditions: monomers; 20 mg/mL, 37° C., 2 hours; NBD-cholesterol fluorescence
Protocol: First, in order to form cholesterol crystals, a solution including 2 mg/ml of cholesterol and 0.2 mg/ml of NBD-cholesterol in ethanol was prepared, and then distilled water (30% v/v) was added to the solution to induce crystallization. The solution was completely dried under vacuum, resuspended in PBS, and sonicated for 30 seconds. 20 μL of 5 mM cholesterol was mixed with 300 μL of 20 mg/mL cyclodextrin and reacted at 37° C. for 2 hours. After centrifuging the mixture at 14,000 g for 30 minutes to remove undissolved cholesterol crystals, the supernatant was collected and the fluorescence of dissolved NBD-cholesterol was measured at 480 nm/520 nm, and the cholesterol crystal dissolution levels depending on the molecular weights of hydroxypropyl-alpha-, -beta-, -gamma-cyclodextrin monomers and polymers were confirmed.

[6] = systemic toxicity (body weight, behavioral score, organ histology); conditions: 10 g/kg subcutaneous; one day after administration
Protocol: as §1, §2

[7] = system: whole blood from wild-type C57/BL6 mice; assay: hemolytic activity; assay type: cell-based; conditions: monomers; 50 mg/ml in PBS, 37° C., 1 hour
Protocol: For hemolytic activity analysis, 30 μL of whole blood from wild-type C57/BL6 mice was mixed with 300 μL of a PBS solution containing 50 mg/ml of cyclodextrin and reacted at 37° C. for 1 hour. After centrifuging the mixture at 3,000 g for 5 minutes, the absorbance at 540 nm was measured using the supernatant.

| Compound | level of plasma membrane cholesterol extraction (in words) (Raw 264.7 cells [1]; 20 mg/mL, compared with alpha- and beta-cyclodextrin monomers and polymers, or with the monomers) | plasma membrane cholesterol extraction (Raw 264.7 cells [1]) [%] | outer hair cell survival [2] [%] | cell viability (Raw 264.7 cells [3]) [%] | amount of intracellular cholesterol (Raw 264.7 cells [4]) [%] | cholesterol crystal dissolution [5] [%] | lowest behavioral score, average [6] [points] | hemolytic activity [7] [%] |
| --- | --- | --- | --- | --- | --- | --- | --- | --- |
| hydroxypropyl-gamma-cyclodextrin | significantly low levels of cholesterol extraction | 5 | 69.7 | 93.9 | 75 | 12.1 |  |  |
| cyclodextrin |  |  |  |  |  |  | 6 |  |
| CC(O)COC[C@H]1O[C@@H]2O[C@H]3[C@H](O)[C@@H](O)[C@@H](O[C@H]4[C@H](O)[C@@H](O)[C@@H](O[C@H]5[C@H](O)[C@@H](O)[C@@H](O[C@H]6[C@H](O)[C@@H](O)[C@@H](O[C@H]7[C@H](O)[C@@H](O)[C@@H](O[C@H]8[C@H](O)[C@@H](O)[C@@H](O[C@H]1[C@H](O)[C@H]2O)O[C@@H]8COCC(C)O)O[C@@H]7COCC(C)O)O[C@@H]6COCC(C)O)O[C@@H]5COCC(C)O)O[C@@H]4COCC(C)O)O[C@@H]3COCC(C)O (stereo partly drawn) [hydroxypropyl-beta-cyclodextrin] |  | 45 | 27.5 | 9.6 | 80.5 | 32.3 |  | 97.1 |
| hydroxypropyl-alpha-cyclodextrin |  | 42.8 |  | 14.2 |  | 21.9 |  |  |
